Source: patent publication US11459318B2, “Pesticidally active pyrrole derivatives” (Syngenta Participations AG, priority 2017, dated 2022)

Assays:
Assay type in all cases: in vivo
[1] = tested on: Thrips tabaci (Onion Thrips); assay: Thrips tabaci (Onion Thrips): Feeding/Contact activity; details: foliar, 144 h, application rate of 200 ppm, thrips population of mixed ages on sunflower leaf discs, assessed 6 days after infestation, read-out: control (mortality)
Procedure: Thrips tabaci (Onion Thrips): Feeding/Contact activity
(§1) Sunflower leaf discs were placed on agar in 24-well microtiter plates and sprayed with aqueous test solutions prepared from 10,000 ppm DMSO stock solutions. After drying the leaf discs were infested with a thrips population of mixed ages. The samples were assessed for mortality 6 days after infestation.

[2] = tested on: Plutella xylostella (Diamond back moth); assay: Plutella xylostella (Diamond back moth): Feeding/contact activity; details: 120 h, application rate of 200 ppm, L2 larvae on artificial diet, assessed 5 days after infestation, read-out: control (mortality)
Procedure: Plutella xylostella (Diamond back moth): Feeding/contact activity
24-well microtiter plates with artificial diet were treated with aqueous test solutions prepared from 10,000 ppm DMSO stock solutions by pipetting. After drying, the plates were infested with L2 larvae (10 to 15 per well). The samples were assessed for mortality 5 days after infestation.

[3] = tested on: Spodoptera littoralis (Egyptian cotton leaf worm); assay: Spodoptera littoralis (Egyptian cotton leaf worm): Feeding/contact activity; details: foliar, 72 h, application rate of 200 ppm, L1 larvae on cotton leaf discs, assessed 3 days after infestation, read-out: control (mortality)
Procedure: Spodoptera littoralis (Egyptian cotton leaf worm): Feeding/contact activity Cotton leaf discs were placed onto agar in 24-well microtiter plates and sprayed with aqueous test solutions prepared from 10,000 ppm DMSO stock solutions. After drying the leaf discs were infested with five L1 larvae. The samples were assessed for mortality 3 days after infestation.

[4] = tested on: Tetranychus urticae (Two-spotted spider mite); assay: Tetranychus urticae (Two-spotted spider mite): Feeding/contact activity; details: foliar, 192 h, application rate of 200 ppm, mite population of mixed ages (mobile stages) on bean leaf discs, assessed 8 days after infestation, read-out: control (mortality)
Procedure: Tetranychus urticae (Two-spotted spider mite): Feeding/contact activity
as §1, with “Bean” for “Sunflower”, “discs” for “discs were placed”, “were” for “and”, “mite” for “thrips”, “on mixed population (mobile stages) 8” for “6”

[5] = tested on: Myzus persicae (Green peach aphid); assay: Myzus persicae (Green peach aphid): Feeding/Contact activity; details: foliar, 144 h, application rate of 200 ppm, aphid population of mixed ages on sunflower leaf discs, assessed 6 days after infestation, read-out: control (mortality)
Procedure: Myzus persicae (Green peach aphid): Feeding/Contact activity Sunflower leaf discs were placed onto agar in a 24-well microtiter plate and sprayed with aqueous test solutions prepared from 10,000 ppm DMSO stock solutions. After drying, the leaf discs were infested with an aphid population of mixed ages. The samples were assessed for mortality 6 days after infestation.

[6] = tested on: Euschistus heros (Neotropical Brown Stink Bug); assay: Euschistus heros (Neotropical Brown Stink Bug): Feeding/contact activity; details: 120 h, application rate of 200 ppm, N2 nymphs on soybean leaves, assessed 5 days after infestation, read-out: control (mortality)
Procedure: Euschistus heros (Neotropical Brown Stink Bug): Feeding/contact activity Soybean leaves on agar in 24-well microtiter plates were sprayed with aqueous test solutions prepared from 10,000 ppm DMSO stock solutions. After drying the leaves were infested with N2 nymphs. The samples were assessed for mortality 5 days after infestation.

[7] = tested on: Diabrotica balteata (Corn root worm); assay: Diabrotica balteata (Corn root worm), maize sprouts sprayed, L2 larvae mortality; details: 96 h, application rate of 200 ppm, L2 larvae on maize sprouts, assessed 4 days after infestation, read-out: control (mortality)
Procedure: Diabrotica balteata (Corn root worm):
Maize sprouts placed onto an agar layer in 24-well microtiter plates were treated with aqueous test solutions prepared from 10,000 ppm DMSO stock solutions by spraying. After drying, the plates were infested with L2 larvae (6 to 10 per well). The samples were assessed for mortality 4 days after infestation.

Measured: mortality at 200 ppm

CCN(C(=O)c1cc(-c2cnn(-c3c(Br)cc(C(F)(C(F)(F)F)C(F)(F)F)n3C)c2)ccc1Cl)C1(C#N)CC1 [Compound 20, 5-[1-[3-bromo-1-methyl-5-[1,2,2,2-tetrafluoro-1-(trifluoromethyl)ethyl]pyrrol-2-yl]pyrazol-4-yl]-2-chloro-N-(1-cyanocyclopropyl)-N-ethyl-benzamide]
≥ 80%: all assays above

CC(C)(C)n1c(C(F)(C(F)(F)F)C(F)(F)F)cc(Br)c1-n1cc(-c2ccc(Cl)c(C(=O)NC3(C#N)CC3)c2)cn1 [Compound 25, 5-[1-[3-bromo-1-tert-butyl-5-[1,2,2,2-tetrafluoro-1-(trifluoromethyl)ethyl]pyrrol-2-yl]pyrazol-4-yl]-2-chloro-N-(1-cyanocyclopropyl)benzamide]
≥ 80%: all assays above

Cn1c(C(F)(C(F)(F)F)C(F)(F)F)cc(Br)c1-n1cc(-c2ccc(Cl)c(C(=O)NC3(C#N)CC3)c2)cn1 [Compound 2, 5-[1-[3-bromo-1-methyl-5-[1,2,2,2-tetrafluoro-1-(trifluoromethyl)ethyl]pyrrol-2-yl]pyrazol-4-yl]-2-chloro-N-(1-cyanocyclopropyl)benzamide]
≥ 80%: all assays above
